Patent publication US12281304B2, “Compositions and methods for treating and preventing muscular disorders and dystrophies, steroid side effects, and inflammation” (Children's National Medical Center, priority 2018, dated 2025)

Tested on: miRNAs in diaphragm muscle of mdx mice
Assay: TaqMan low-density array (TLDA) miRNA profiling of diaphragm, discovery set (prophylactic mdx trial)
Format: in vivo, mouse
Text: Archival muscle samples (diaphragm) from two separate preclinical studies were obtained, with each trial showing a significant benefit from both prednisolone and vamorolone drug treatments (23). Prednisolone was used because it is the active form of prednisone, the current DMD standard of care. The first, “discovery set” of diaphragm muscles was from a prophylactic trial design where 2-week old (postnatal day 15) mdx or wild type control mice received oral dosing for 6 weeks with vehicle (cherry syrup), prednisolone (5 mg/kg), or vamorolone (15 mg/kg) as previously reported (23). The second, “validation set” of diaphragm muscles was from an extended trial in older mice where mdx or wild type mice were subjected to treadmill running to unmask mild phenotypes. Mice in this validation set were treated with either vehicle, prednisolone (5 mg/kg) or vamorolone (45 mg/kg) for four months beginning at two months of age (23). At the endpoint of each trial, diaphragm muscles were harvested and frozen in liquid nitrogen-cooled isopentane.
We extracted total RNA from 5 diaphragm muscles per treatment group in the discovery set of samples from 8-week old mice. RNA was extracted using a modified TRIzol protocol with isopropanol precipitation at −20° C. overnight. This RNA was reverse transcribed to cDNA using a High Capacity cDNA Reverse Transcription Kit with RNase Inhibitor (ThermoFisher; Carlsbad, Calif.), with miRNA-specific Megaplex RT Primers, Rodent Pools Set version 3.0 (ThermoFisher; Carlsbad, Calif.). Levels of each of the miRNAs were profiled in the discovery set using TAQMAN Array Rodent MiRNA A+B Cards Set v3.0 (ThermoFisher; Carlsbad, Calif.).
In the discovery set experiments, levels of each miRNA were quantified in TaqMan low-density arrays using ThermoFisher Cloud software with the Relative Quantification Application (ThermoFisher; Carlsbad, Calif.) tool. Data was analyzed by ANOVA with post-hoc comparison of each group to the mdx vehicle-treated group. […] A P-value of P≤0.05 was set as the significance threshold, without adjustment for multiple comparisons. To reduce false-positive discovery in this setting, an evidence-based approach was used to identify efficacy associated miRNAs where 1) results from the multiple groups were cross-referenced, and 2) all candidate miRNAs identified in this discovery set were then assayed in a separate validation set of mice. For the validation set experiments, levels of each individual miRNA were assayed in samples from a second, independent preclinical trial in adult mdx mice. Data from individual TaqMan Assays was quantified using QuantStudio Real-Time PCR version 1.3 software (Applied Biosystems; Foster City, Calif.). The levels of all miRNAs were normalized to the geometric mean of multiple control genes (60, 70). Comparison of groups was made by ANOVA with Holm-Sidak post-hoc test comparing each group to mdx vehicle.
To visualize behavior of miRNAs within individual mice for each group, heat map images were generated. Heat maps were generated using Rq values of TLDA array data exported from the Relative Quantification Application of the ThermoFisher Cloud software (ThermoFisher; Carlsbad, Calif.) tool. Heat maps of miRNA expression were produced using Hierarchical Clustering Explorer Version 3.5 (at www.cs.umd.edu/hcil/multi-cluster/) produced by the Human Computer Interaction Laboratory (University of Maryland; College Park, Md.).
To examine miRNA expression TaqMan low density qPCR array cards were used to profile approximately 750 miRNAs within diaphragm muscle from a discovery set of mice. Samples for this experiment came from a trial that utilized a prophylactic approach (23). Briefly, mdx mice undergo a stage of peak severity characterized by widespread inflammation and necrosis from approximately 3-8 weeks of age, followed by a recovery stage where mice show milder phenotypes (25). […]

[1] = discovery set diaphragm muscle, mdx mice, Pred 5 mg/kg, Vam 15 mg/kg
[2] = mdx diaphragm, vs untreated mdx, Pred 5 mg/kg, Vam 15 mg/kg

## C[C@]12C=CC(=O)C=C1CC[C@@H]1[C@@H]2[C@@H](O)C[C@@]2(C)[C@H]1CC[C@]2(O)C(=O)CO [prednisolone]
[1]
  miRNA 142-3p % expression in comparison to mdx vehicle: 50 ± 13 %
  miRNA 142-5p % expression in comparison to mdx vehicle: 44 ± 11 %
  miRNA 146a % expression in comparison to mdx vehicle: 39 ± 6 %
  miRNA 301a % expression in comparison to mdx vehicle: 70 ± 18 %
  miRNA 324-3p % expression in comparison to mdx vehicle: 71 ± 14 %
  miRNA 455-3p % expression in comparison to mdx vehicle: 62 ± 18 %
  miRNA 455-5p % expression in comparison to mdx vehicle: 64 ± 30 %
  miRNA 497 % expression in comparison to mdx vehicle: 49 ± 11 %
  miRNA 652 % expression in comparison to mdx vehicle: 62 ± 14 %
Mdx diaphragm, 8-week-old mice, oral dosing 6 weeks, prednisolone 5 mg/kg, vamorolone 15 mg/kg, versus untreated mdx, P≤0.05
  number of miRNAs significantly changed in dystrophic muscle: 76
Mdx diaphragm, discovery set, prednisolone 5 mg/kg
  expression of 14q32 (mouse 12F1) cluster miRNAs miR-134, miR-370, miR-409, miR-433, miR-493, miR-543: specifically activated
Mdx diaphragm, discovery set, prednisolone 5 mg/kg, vamorolone 15 mg/kg, P≤0.05
  number of miRNAs significantly increased by treatment: 9
Mdx diaphragm, discovery set, versus mdx vehicle
  expression of the nine efficacy-associated miRNAs elevated in dystrophy: returned towards healthy wild type levels
[2]
  Rq hsa-let-7i#-002172: 0.714
  Rq hsa-miR-30e-3p-000422: 0.739
  Rq hsa-miR-22#-002301: 0.641
  Rq hsa-miR-140-3p-002234: 0.681
  Rq hsa-miR-143-000466: 1.096
  Rq hsa-miR-154#-000478: 1.585
  Rq hsa-miR-190b-002263: 0.547
  Rq hsa-miR-200c-000505: 0.486
  Rq hsa-miR-206-000510: 1.017
  Rq hsa-miR-213-000516: 0.622
  Rq hsa-miR-214#-002293: 0.82
  Rq hsa-miR-214-000517: 0.767
  Rq hsa-miR-376a#-001287: 0.978
  Rq hsa-miR-455-001280: 0.6
  Rq hsa-miR-744#-002325: 0.537
  Rq mmu-let-7e-002406: 0.66
  Rq mmu-let-7a-000377: 0.491
  Rq mmu-let-7b-000378: 0.655
  Rq mmu-let-7c-1#-002479: 1.427
  Rq mmu-let-7c-000379: 0.651
  Rq mmu-let-7i-002221: 0.775
  Rq mmu-let-7d#-001178: 0.556
  Rq mmu-let-7d-002283: 0.714
  Rq mmu-miR-1-002222: 0.868
  Rq mmu-miR-15a-000389: 0.635
  Rq mmu-miR-16-000391: 0.663
  Rq mmu-miR-18a-002422: 1.284
  Rq mmu-miR-19a-000395: 0.846
  Rq mmu-miR-20a#-002491: 0.771
  Rq mmu-miR-21#-002493: 0.707
  Rq mmu-miR-21-000397: 0.659
  Rq mmu-miR-23b-000400: 0.621
  Rq mmu-miR-25-000403: 0.75
  Rq mmu-miR-26a-000405: 0.7
  Rq mmu-miR-27b-000409: 0.796
  Rq mmu-miR-28-000411: 0.759
  Rq mmu-miR-30e-002223: 0.785
  Rq mmu-miR-30a-000417: 0.756
  Rq mmu-miR-30b-000602: 0.785
  Rq mmu-miR-30c-000419: 0.739
  Rq mmu-miR-31#-002495: 0.955
  Rq mmu-miR-31-000185: 1.028
  Rq mmu-miR-34a-000426: 0.712
  Rq mmu-miR-34b-3p-002618: 0.607
  Rq mmu-miR-34c#-002584: 0.623
  Rq mmu-miR-34c-000428: 0.655
  Rq mmu-miR-99b-000436: 0.783
  Rq mmu-miR-100-000437: 0.586
  Rq mmu-miR-103-000439: 0.679
  Rq mmu-miR-122-002245: 0.241
  Rq mmu-miR-125a-3p-002199: 0.666
  Rq mmu-miR-125b#-002508: 0.453
  Rq mmu-miR-125b-3p-002378: 0.561
  Rq mmu-miR-125b-5p-000449: 0.676
  Rq mmu-miR-126-3p-002228: 0.697
  Rq mmu-miR-126-5p-000451: 0.682
  Rq mmu-miR-127-000452: 1.382
  Rq mmu-miR-128a-002216: 0.871
  Rq mmu-miR-130a-000454: 0.758
  Rq mmu-miR-130b#-002460: 0.443
  Rq mmu-miR-130b-000456: 0.757
  Rq mmu-miR-133a-002246: 0.942
  Rq mmu-miR-134-001186: 1.922
  Rq mmu-miR-136-002511: 0.705
  Rq mmu-miR-138#-002554: 0.214
  Rq mmu-miR-140-001187: 0.775
  Rq mmu-miR-142-3p-000464: 0.485
  Rq mmu-miR-142-5p-002248: 0.438
  Rq mmu-miR-143-002249: 0.742
  Rq mmu-miR-145-002278: 0.694
  Rq mmu-miR-146a-000468: 0.397
  Rq mmu-miR-146b#-002453: 0.088
  Rq mmu-miR-146b-001097: 0.555
  Rq mmu-miR-148a-000470: 0.602
  Rq mmu-miR-148b-000471: 0.512
  Rq mmu-miR-150#-002570: 0.297
  Rq mmu-miR-150-000473: 0.516
  Rq mmu-miR-151-3p-001190: 0.877
  Rq mmu-miR-152-000475: 0.721
  Rq mmu-miR-154-000477: 0.606
  Rq mmu-miR-155-002571: 0.742
  Rq mmu-miR-181a-000480: 0.728
  Rq mmu-miR-181c-000482: 0.624
  Rq mmu-miR-185-002271: 0.818
  Rq mmu-miR-186-002285: 0.866
  Rq mmu-miR-191-002299: 0.771
  Rq mmu-miR-193#-002577: 0.799
  Rq mmu-miR-195-000494: 0.491
  Rq mmu-miR-199a-3p-002304: 0.844
  Rq mmu-miR-199b-001131: 0.771
  Rq mmu-miR-200c-002300: 0.508
  Rq mmu-miR-203-000507: 0.575
  Rq mmu-miR-204-000508: 0.722
  Rq mmu-miR-210-000512: 0.759
